System: 252836-082-R-J2-PDC tumor spheroids, viability
Experiment: Anticancer human tumor 252836-082-R-J2-PDC patient-derived head and neck squamous cell carcinoma cell line growth inhibition [PI3K]
Conditions: spheroids with HUVEC and MSC; for IC50: curve of first compound; for viability, T/C: stronger effect = lower value
Description: Combinatorial screen of targeted agents with the PI3K inhibitors inavolisib, alpelisib, duvelisib, and copanlisib in multi-cell type tumor spheroids
A high-throughput screen of multi-cell type tumor spheroids was designed to identify active combinations of targeted small molecules and PI3K pathway inhibitors. Complex spheroids include a stromal component modeled by human endothelial cells (HUVEC) and fibroblasts modeled by human mesenchymal stem cells (MSCs). The concentration ranges selected for each drug and investigational agent were based upon clinically achievable concentrations if the clinical Cmax of the agent was known.
Compounds. The drugs and investigational agents: inavolisib (NSC800729), alpelisib (NSC765974), duvelisib (NSC772469), copanlisib (NSC816437), ipatasertib (NSC767898), afuresertib (NSC778305), talazoparib (NSC767125), sapanisertib (NSC764658), selumetinib (NSC741078), tovorafenib (DAY101, NSC766906), vemurafenib (NSC761431), ravoxertinib (NSC781343), sotorasib (NSC818433), MRTX1133 (NSC 836407), abemaciclib (NSC 768073), palbociclib (NSC758247), venetoclax (NSC 766270), SY5609 (NSC837396), enzalutamide (NSC755605), and darolutamide (NSC825331), were obtained from the National Cancer Institute (NCI) Developmental Therapeutics Program Chemical Repository. The FDA-approved anticancer drug set is available from the NCI Developmental Therapeutics Program. […] The stock solutions were prepared in dimethyl sulfoxide (DMSO, Sigma-Aldrich, St. Louis, MO, cat. D2650) at 800-fold the tested concentration and stored at -70 degrees C prior to their use. All drugs and investigational agents were tested over a range starting from a high concentration at or near the clinical Cmax and decreasing in half-log increments. If the clinical Cmax for an agent had not been determined, the highest concentration tested was 10 microM.
Cell Culture. All cells were maintained in an incubator at 37 degrees C and 5% CO2 with 95% humidity. The PDC lines were cultured according to standard operating procedures established by the NCI PDMR (https://pdmr.cancer.gov/sops/default.htm). All PDCs were thawed and cultured in Matrigel-coated flasks prepared with a working solution of 1X Ham's F-12 nutrient mix, without supplementation (Invitrogen, Waltham, MA, cat. 11765054), 100 U/mL penicillin-streptomycin (Invitrogen, cat. 15140122), and 2.5% Matrigel (Corning Inc., Corning, NY, cat. 354248) for the first three passages. The 354836-022-R-J1-PDC, 475296-252-R-J1-PDC, and 997726-040-R-J2-PDC lines were cultured in 6A media, which includes advanced DMEM/F-12 (Thermo Fisher Scientific, cat. 12634028), 10 mM HEPES (Thermo Fisher Scientific, cat. 15630080), 1X GlutaMAX supplement (Thermo Fisher Scientific, cat. 35050061), 0.1 mg/mL primocin (InvivoGen, San Diego, CA, cat. ant-pm-2), 10% defined fetal bovine serum, heat inactivated (HyClone Laboratories Inc., Logan, UT, cat. SH30070.03HI), 50% L-WRN conditioned media (ATCC, cat. CRL-3276), 1.25 mM N-Acetyl-L-cysteine (Sigma-Aldrich, cat. A9165), 10 mM nicotinamide (Sigma-Aldrich, cat. N0636), 1X B-27 supplement (Thermo Fisher Scientific, cat. 17504044), 1X N-2 supplement (Thermo Fisher Scientific, cat. 17502048), and 10 microM Y-27632 dihydrochloride (Tocris Bioscience, Bristol, United Kingdom, cat. 1254). The 624824-186-R-J2-PDC line was cultured in 6C/Colon 1B media, which includes all 6A media components plus 50 ng/mL human EGF recombinant protein (Thermo Fisher Scientific, cat. PHG0311). […]
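Also: spheroids exposed to agents for seven days before readout.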
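For viability, T/C in this document: percent of vehicle DMSO control viability so 100% = untreated growth.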

IC50 (second compound 0.00316 µM): > 100 nM | IC50 (second compound 0.01 µM): > 100 nM | IC50 (second compound 0.0316 µM): > 100 nM | IC50 (second compound 0.1 µM): 46.7 nM | IC50 (second compound 0.316 µM): 6.75 nM | IC50 (second compound 1 µM): < 0.316 nM
Structure (SMILES): Cn1ncnc1[C@H]1c2n[nH]c(=O)c3cc(F)cc(c23)N[C@@H]1c1ccc(F)cc1 + CC(Nc1ccc2c(c1)OCCn1cc(N3C(=O)OCC3C(F)F)nc1-2)C(N)=O
viability, T/C (second compound 0.00316 µM, first compound 0.000316 µM): 97.7% | viability, T/C (second compound 0.00316 µM, first compound 0.001 µM): 86.2% | viability, T/C (second compound 0.00316 µM, first compound 0.00316 µM): 78.7% | viability, T/C (second compound 0.00316 µM, first compound 0.01 µM): 86.3% | viability, T/C (second compound 0.00316 µM, first compound 0.0316 µM): 79.2% | viability, T/C (second compound 0.00316 µM, first compound 0.1 µM): 57.5% | viability, T/C (second compound 0.01 µM, first compound 0.000316 µM): 85.6% | viability, T/C (second compound 0.01 µM, first compound 0.001 µM): 89.5% | viability, T/C (second compound 0.01 µM, first compound 0.00316 µM): 89% | viability, T/C (second compound 0.01 µM, first compound 0.01 µM): 84.5% | viability, T/C (second compound 0.01 µM, first compound 0.0316 µM): 72.8% | viability, T/C (second compound 0.01 µM, first compound 0.1 µM): 53% | viability, T/C (second compound 0.0316 µM, first compound 0.000316 µM): 85.9% | viability, T/C (second compound 0.0316 µM, first compound 0.001 µM): 93.6% | viability, T/C (second compound 0.0316 µM, first compound 0.00316 µM): 71.2% | viability, T/C (second compound 0.0316 µM, first compound 0.01 µM): 64.4% | viability, T/C (second compound 0.0316 µM, first compound 0.0316 µM): 72.6% | viability, T/C (second compound 0.0316 µM, first compound 0.1 µM): 50.3% | viability, T/C (second compound 0.1 µM, first compound 0.000316 µM): 67.9% | viability, T/C (second compound 0.1 µM, first compound 0.001 µM): 71.8% | viability, T/C (second compound 0.1 µM, first compound 0.00316 µM): 68.7% | viability, T/C (second compound 0.1 µM, first compound 0.01 µM): 59.5% | viability, T/C (second compound 0.1 µM, first compound 0.0316 µM): 54.3% | viability, T/C (second compound 0.1 µM, first compound 0.1 µM): 42.1% | viability, T/C (second compound 0.316 µM, first compound 0.000316 µM): 52.8% | viability, T/C (second compound 0.316 µM, first compound 0.001 µM): 58.1% | viability, T/C (second compound 0.316 µM, first compound 0.00316 µM): 57.6% | viability, T/C (second compound 0.316 µM, first compound 0.01 µM): 44% | viability, T/C (second compound 0.316 µM, first compound 0.0316 µM): 41% | viability, T/C (second compound 0.316 µM, first compound 0.1 µM): 30.8% | viability, T/C (second compound 1 µM, first compound 0.000316 µM): 50.6% | viability, T/C (second compound 1 µM, first compound 0.001 µM): 45.4% | viability, T/C (second compound 1 µM, first compound 0.00316 µM): 50.1% | viability, T/C (second compound 1 µM, first compound 0.01 µM): 36% | viability, T/C (second compound 1 µM, first compound 0.0316 µM): 31.9% | viability, T/C (second compound 1 µM, first compound 0.1 µM): 27.2%
